Data reported in US11814680B2, “Biomarkers for detecting senescent cells” (Universität für Bodenkultur Wien, priority 2017, dated 2023).
Entries after “also recorded” stand apart in the source; their conditions may differ. Marks after values point to notes of the source that are not given here.

Columns and labels:
Assay type in all cases: in vivo, mouse
p16-3MR mice [1] = experiment: ROC analysis of discriminatory power of circulating microRNAs; details: serum, RT-qPCR, symbol after the number = significance
Experimental: (§1) Statistical analysis was performed using Medcalc (version 18.2.1). Normal distribution was assessed using D'Agostino-Pearson test, where normality was accepted at p>0.05. One-way ANOVA together together with Student-Newman-Keuls test for all pairwise comparisons (post-hoc tests) was used to identify significant changes between groups (p<0.05). To assess the discriminatory power of individual microRNAs, receiver operating characteristic (ROC) analysis was applied. ROC curves were plotted using sensitivity (y-axis) and 1-specificity (x-axis) and the area under the ROC curve (AUC) was calculated. MicroRNAs with AUC-values of >0.7 were considered as good discriminators/biomarkers. MicroRNAs with AUC-values >0.8 were considered very good discriminators/biomarkers.
In order to assess the diagnostic power of circulating microRNAs for the exposure with senescence inducing substances (DOX) as well as the efficacy of senolytic treatment, ROC analysis was performed and the area-under-the-curve (AUC) was calculated. […] Table 23 below summarizes AUC values as well as 95% confidence intervals for 24 selected circulating microRNAs.

p16-3MR mice [2] = experiment: Next generation sequencing of circulating miRNAs in serum after induction (dox) and removal (GCV) of senescent cells; details: NGS; for log fold change: p16-3MR mice
Experimental: p16-3MR (Demaria et al, 2014, Developmental Cell 31:722-733) mice were bred in house and maintained in the AALAC-accredited Buck Institute for Research on Aging (Novato, Calif.) animal facility. 10 to 12-week-old p16-3MR male mice were used for experiments. Mice were divided in 4 groups and each group consisted of 3 animals. In group A, control mice were injected with PBS. In group B, mice were treated with Ganciclovir (GCV) (Sigma-Aldrich) dissolved in PBS for 5 consecutive days. In group C, mice were treated with one dose of Doxorubicine hydrochloride (Sigma-Aldrich) dissolved in PBS. In group D, mice were first treated with Doxorubicine and then treated 10 days later with GCV. Mice were intraperitoneally injected with one dose of 10 mg/kg of Doxorubicine hydrochloride, and GCV was administered daily by intraperitoneal injections for 5 consecutive days at concentration of 25 mg/kg in PBS. 4 days after the last GCV dose, animals were euthanized with CO2 and blood was withdrawn immediately. Blood was then incubated for 30 min at room temperature and centrifuged at 3400×g for 10 min. Serum was carefully collected in a sterile tube without disturbing the cell pellet and stored at −80° C. for further experiments.
Total RNA extraction was performed from 200 μl of serum using the Qiagen miRNeasy™ extraction kit (Qiagen, Germany). RNA yield was quality checked for homogenous extraction efficiency and hemolysis on the basis qPCR amplification of spiked-in as well as hemolysis-responsive RNAs (Blondal et al). In total 2 μl total RNA were used for library preparation using the CleanTag library preparation protocol (Trilink Biotechnologies, USA), which uses chemically modified adapters to prevent adapter self-ligation. Library quality and yield was controlled using Bioanalyzer DNA-1000 chips. Due to the high purity, libraries were not purified prior to sequencing on an ILLUMINA™ NextSeq 500 sequencing system with 50 bp single-end reads.
Next-generation sequencing was performed at Exiqon (Denmark). Raw reads were quality filtered for a Q-score of 30 or higher. Adapter sequences were trimmed and the remaining reads were mapped against the mouse genome, miRBase, non-coding RNA databases and classified as either microRNAs, small RNAs, genome mapping RNAs or outmapped RNA sequences. Read counts were added for all microRNA isoforms (isomiRs) and normalized by dividing the microRNA read count by the total number of mapped reads and multiplying by 1 million (Tags Per Million). Tags per millions were used for data mining (PCA and hierarchical clustering) using the web-tool clustvis (Metsalu and Vilo 2015).
For differential expression analysis, the EdgeR statistical software package was used. For normalization, the trimmed mean of M-values method was used based on log-fold and absolute gene wise changes in expression levels between samples (TMM normalization). […] Additionally, the normalization step offsets under-sampling effects (due to highly expressed microRNAs dominating the read set) by identifying scaling factors that minimize log-fold changes between samples across the majority of microRNAs.
For exploratory data analysis we applied principal component analysis (PCA) to the dataset of 50 most variable microRNAs according to the coefficient of variation. The PCA plot clearly indicates an effect of […] (dox) treatment on circulating microRNA levels in p16-3MR mice compared to the PBS treated control animals (FIG. 2). […] Analysis of differentially circulating miRNAs was focused on changes between dox treated versus control (PBS) to identify those miRNAs that are modulated by induction of senescence, as well as dox-GCV vs dox, in order to identify miRNAs that change after removal of senescent cells. A p-value threshold of <0.05 without correction for multiple testing was used. […] GCV-treated animals are supposed to have a reduced number of senescent cells compared to PBS due to forced apoptosis. […]

p16-3MR mice [3] = experiment: RT-qPCR verification of serum circulating microRNA changes, one-way ANOVA
Experimental: p16-3MR (Demaria et al, 2014, Developmental Cell 31:722-733) mice were bred in house and maintained in the AALAC-accredited Buck Institute for Research on Aging (Novato, Calif.) animal facility. 10 to 12-week-old p16-3MR […] mice were used for experiments. Mice were divided in 4 groups and each group consisted of 8 animals, 5 female, and 3 male, respectively. In group A, control mice were injected with PBS. In group B, mice were treated with Ganciclovir (GCV) (Sigma-Aldrich) dissolved in PBS for 5 consecutive days. In group C, mice were treated with one dose of Doxorubicine hydrochloride (Sigma-Aldrich) dissolved in PBS. In group D, mice were first treated with Doxorubicine and then treated 10 days later with GCV. Mice were intraperitoneally injected with one dose of 10 mg/kg of Doxorubicine hydrochloride, and GCV was administered daily by intraperitoneal injections for 5 consecutive days at concentration of 25 mg/kg in PBS. 4 days after the last GCV dose, animals were euthanized with CO2 and blood was withdrawn immediately. Blood was then incubated for 30 min at room temperature and centrifuged at 3400×g for 10 min. Serum was carefully collected in a sterile tube without disturbing the cell pellet and stored at −80° C. for further experiments.
Total RNA extraction was performed from 200 μl of serum using the Qiagen miRNeasy extraction kit (Qiagen, Germany). RNA yield was quality checked for homogenous extraction efficiency and hemolysis on the basis qPCR amplification of spiked-in as well as hemolysis-responsive RNAs (Blondal et al). In total 2 μl total RNA were used for reverse transcription using the Exiqon Universal RT kit II (Exiqon, Denmark). The obtained cDNA samples were pre-diluted 1:40 and subsequently mixed with SYBR Green® Mix (Exiqon, Denmark) to achieve a 1:100 dilution. The mix was distributed to primer-coated 384-well plates containing dried primer pairs for 96 selected microRNA or quality control assays. QPCR amplification was performed on a Roche LightCycler 480 II, using the manufacturer's recommendation for annealing, extension and denaturation.
Raw Cq-values were computed using the 2nd derivative method. Melting curves were checked for peaks to ensure specificity of the amplification reactions. Cq-values were subsequently normalized using Spike-In controls as references, to reduce technical noise in the data.
as §1

miR-34a-5p: circulating microRNA biomarker, SEQ ID No. 1 (UGGCAGUGUCUUAGCUGGUUGU; expressed or natural sequence; listed as Homo sapiens)
ROC Analysis AUC Senescence (p16-3MR mice [1]; DOX vs PBS): 1.000*
ROC Analysis AUC Senolytic Treatment (p16-3MR mice [1]; DOX/GCV vs DOX): 0.672°
serum level after rescue with dox+GCV (removal of senescent cells) (p16-3MR mice [2]; in words): decreased
serum level in dox-treated animals compared to PBS controls (p16-3MR mice [2]; in words): higher; also recorded: increased
serum level after rescue with dox+GCV (removal of senescent cells) (p16-3MR mice [2]; in words, listed as miR-34a): significant decline
avg TPM GCV (p16-3MR mice [2]; serum miRNA, comparison group of Table 17, printed GCV): 8.00 TPM
avg TPM dox + GCV (p16-3MR mice [2]; serum miRNA, dox + GCV treated p16-3MR mice): 2.33 TPM
log fold change (p16-3MR mice [2]; serum miRNA, dox + gcv vs gcv (so in the source)): −1.34
log fold change (p16-3MR mice [2]; serum miRNA, dox vs pbs): 1.13
avg TPM dox (p16-3MR mice [2]; serum miRNA, dox-treated p16-3MR mice): 8.00 TPM
regulation in serum after exposure to DOX compared to PBS (p16-3MR mice [3]; independent of gender, in words): significantly (up- or down-regulated)
One-way ANOVA Senolytic Treatment (DOX/GCV) (p16-3MR mice [3]; serum, DOX/GCV compared to DOX): ○
One-way ANOVA Senescence (DOX vs PBS) (p16-3MR mice [3]; serum, n=8 per group, male and female mice): * (significant p < 0.05)
